# Assay results reported in ChEMBL document CHEMBL1140951, “2-Acetylpyridine thiosemicarbazones are potent iron chelators and antiproliferative agents: redox activity, iron complexation and characterization of their antitumor activity” (J Med Chem, 2009).
# How the values were obtained:
# [1] = target: Serotransferrin (Homo sapiens) (UniProt P02787); test: Induction of iron removal from 59Fe]transferrin assessed as iron release after 3 hrs relative to control; set-up: concentration or dose not given beside the values
# [2] = Octanol-water partition coefficient, log P of the compound; assay type: physicochemical
# SK-N-MC [3] = test: Induction of iron mobilization in 59Fe]transferrin labeled human SK-N-MC cells assessed as iron release at 25 uM after 3 hrs by gamma scintillation counter; assay type: functional
# SK-N-MC [4] = test: Cytotoxicity against 59Fe]transferrin prelabeled human SK-N-MC cells assessed as cell viability at 25 uM after 3 hrs; assay type: cell-based
# [5] = target: Serotransferrin (Homo sapiens) (UniProt P02787); test: Reduction of cellular iron uptake from 59Fe]transferrin in human SK-N-MC cells at 25 uM after 3 hrs relative to control; assay type: cell-based; set-up: scale not given: the % may be the effect or the level left
# SK-N-MC [6] = test: cells; conditions: Homo sapiens, 72 h
# Description: Antiproliferative activity against human SK-N-MC cells after 72 hrs by MTT assay
# Sequence of Serotransferrin (Homo sapiens) (P02787 whole entry): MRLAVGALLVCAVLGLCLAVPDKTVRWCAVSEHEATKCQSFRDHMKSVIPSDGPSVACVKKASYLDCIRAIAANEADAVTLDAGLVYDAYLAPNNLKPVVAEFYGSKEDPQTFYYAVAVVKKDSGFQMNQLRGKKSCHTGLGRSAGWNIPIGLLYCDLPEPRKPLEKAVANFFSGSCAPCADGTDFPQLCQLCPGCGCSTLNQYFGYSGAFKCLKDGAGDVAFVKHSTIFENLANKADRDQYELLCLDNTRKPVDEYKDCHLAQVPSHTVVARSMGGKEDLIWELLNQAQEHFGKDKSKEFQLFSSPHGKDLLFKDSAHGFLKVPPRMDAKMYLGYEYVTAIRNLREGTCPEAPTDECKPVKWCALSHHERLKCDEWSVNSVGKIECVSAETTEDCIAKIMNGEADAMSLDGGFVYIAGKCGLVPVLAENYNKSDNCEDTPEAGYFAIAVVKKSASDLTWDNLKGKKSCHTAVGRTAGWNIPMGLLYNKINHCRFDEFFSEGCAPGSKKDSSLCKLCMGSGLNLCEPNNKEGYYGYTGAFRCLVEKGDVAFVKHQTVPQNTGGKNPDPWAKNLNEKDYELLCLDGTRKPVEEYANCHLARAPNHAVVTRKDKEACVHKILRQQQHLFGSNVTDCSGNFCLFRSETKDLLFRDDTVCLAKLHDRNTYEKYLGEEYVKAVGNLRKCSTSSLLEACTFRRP
Structure (SMILES),Activity [1] [%],logP [2],Activity (SK-N-MC [3]) [%],Activity (SK-N-MC [4]),Activity [5] [%],IC50 (SK-N-MC [6]) [nM]
NC(=S)NN=C(c1ccccn1)c1ccccn1,1.6,,,,,
C/C(=N\NC(=S)Nc1ccccc1)c1ccccn1,0.9,2.99,33,Non-toxic,35,1
C=CCNC(=S)N/N=C(\C)c1ccccn1,1.7,1.76,,,4,1
CN(C)C(=S)NN=C(c1ccccn1)c1ccccn1,2.9,,27,,7,
Cc1ncc(CO)c(/C=N/NC(=O)c2ccncc2)c1O [PYRIDOXAL ISONICOTINOYL HYDRAZONE],,,37,,11,
C/C(=N\NC(N)=S)c1ccccn1,1,1.52,,,4,3530
C/C(=N\NC(=S)N(C)C)c1ccccn1,2.7,1.8,,,4,1
CCNC(=S)N/N=C(\C)c1ccccn1,2.1,1.52,,,4,2
NC(=S)N/N=C(\c1ccccc1)c1ccccn1,2,,,,,
O=C(N/N=C/c1c(O)ccc2ccccc12)c1ccncc1,,,,,,500
CC(=O)N(O)CCCCCNC(=O)CCC(=O)N(O)CCCCCNC(=O)CCC(=O)N(O)CCCCCN [DEFEROXAMINE],14.2,,13,,83,7350
CCNC(=S)N/N=C(\c1ccccc1)c1ccccn1,3.1,,,,,3
Cc1c(O)c(=O)ccn1C,20,,,,,
CNC(=S)N/N=C(\C)c1ccccn1,1.8,2.7,,,4,11
